According to PubChem BioAssay (NCI):
“And” between values parts separate entries of the source, which are not always exact repeats. Equal entries are not always repeated.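 Method: 48-hour compound exposure of cells in 96-well plates, five concentrations, linear interpolation of endpoints. GI50 = concentration required for 50% inhibition of growth. At the TGI there is no net growth.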 The source made the active and inactive calls. Cut-off read from the data, not from the text of the source: active = GI50 below about 0.43 µM; inactive = the rest.

Key:
Experiment in all cases: inhibition of tumour cell growth, NCI panel, 48 h
[1] = test system: 786-0 renal
[2] = test system: A498 renal
[3] = test system: A549 NSCLC
[4] = test system: ACHN renal
[5] = test system: CAKI-1 renal
[6] = test system: CCRF-CEM leukemia
[7] = test system: COLO 205 colon
[8] = test system: DLD-1 colon
[9] = test system: DMS 114 small cell lung
[10] = test system: DMS 273 small cell lung
[11] = test system: EKVX NSCLC
[12] = test system: HCC-2998 colon
[13] = test system: HCT-116 colon
[14] = test system: HCT-15 colon
[15] = test system: HL-60(TB) leukemia
[16] = test system: HOP-18 NSCLC
[17] = test system: HOP-62 NSCLC
[18] = test system: HOP-92 NSCLC
[19] = test system: HT29 colon
[20] = test system: IGROV1 ovarian
[21] = test system: K-562 leukemia
[22] = test system: KM12 colon
[23] = test system: KM20L2 colon
[24] = test system: LOX IMVI melanoma
[25] = test system: M14 melanoma
[26] = test system: M19-MEL melanoma
[27] = test system: MALME-3M melanoma
[28] = test system: MOLT-4 leukemia
[29] = test system: NCI-H226 lung
[30] = test system: NCI-H23 lung
[31] = test system: NCI-H460 lung
[32] = test system: NCI-H522 lung
[33] = test system: OVCAR-3 ovarian
[34] = test system: OVCAR-4 ovarian
[35] = test system: OVCAR-5 ovarian
[36] = test system: OVCAR-8 ovarian
[37] = test system: RPMI-8226 leukemia
[38] = test system: RXF 393 renal
[39] = test system: SF-268 CNS
[40] = test system: SF-295 CNS
[41] = test system: SF-539 CNS
[42] = test system: SK-MEL-2 melanoma
[43] = test system: SK-MEL-28 melanoma
[44] = test system: SK-MEL-5 melanoma
[45] = test system: SK-OV-3 ovarian
[46] = test system: SN12C renal
[47] = test system: SNB-19 CNS
[48] = test system: SNB-75 CNS
[49] = test system: SNB-78 CNS
[50] = test system: SR leukemia
[51] = test system: SW-620 colon
[52] = test system: TK-10 renal
[53] = test system: U251 CNS
[54] = test system: UACC-257 melanoma
[55] = test system: UACC-62 melanoma
[56] = test system: UO-31 renal
[57] = test system: XF 498 CNS
[58] = test system: LXFL 529 NSCLC

## N/C(=N\N=C/c1c2ccccc2c(Cl)c2ccccc12)NO
[1]
  GI50: 5.63 µM
  TGI: 26.1 µM and 19.6 µM
[2]
  TGI: 29 µM
[3]
  GI50: 2.25 µM
  TGI: 11 µM and 5.57 µM
[4]
  GI50: 3.84 µM
  TGI: 15.8 µM and 13.8 µM
[5]
  TGI: 19.5 µM and 18.5 µM
[6]
  GI50: 1.37 µM
  TGI: 13.7 µM
[7]
  GI50: 3.22 µM
  TGI: 14.1 µM and 14.7 µM
[8]
  TGI: 20.1 µM and 19.1 µM
[9]
  GI50: 2.79 µM
  TGI: 12.8 µM and 10.2 µM
[10]
  TGI: 3.89 µM
[11]
  TGI: 15.5 µM and 13.5 µM
[12]
  GI50: 1.85 µM
  TGI: 13.7 µM and 3.97 µM
[13]
  GI50: 1.76 µM
  TGI: 13.8 µM and 3.36 µM
[14]
  GI50: 2.57 µM
  TGI: 19.4 µM and 6.72 µM
[15]
  TGI: 7.31 µM
[16]
  TGI: 10.7 µM and 13.9 µM
[17]
  GI50: 5.71 µM
  TGI: 27.8 µM and 22.9 µM
[18]
  GI50: 10.8 µM
  TGI: 12.3 µM and 28.7 µM
[19]
  GI50: 2.84 µM
  TGI: 15.6 µM and 8.47 µM
[20]
  TGI: 15.5 µM and 18.5 µM
[21]
  GI50: 3.17 µM
[22]
  GI50: 4.01 µM
  TGI: 21.7 µM and 16 µM
[23]
  TGI: 4.81 µM
[24]
  TGI: 12.2 µM
[25]
  GI50: 2.65 µM
  TGI: 25.1 µM and 9.47 µM
[26]
  GI50: 5.4 µM
  TGI: 19.6 µM and 18.6 µM
[27]
  TGI: 19.4 µM
[28]
  TGI: 37.2 µM
  outcome: inactive
[29]
  TGI: 6.86 µM
[30]
  GI50: 6.51 µM
  TGI: 17.3 µM and 19.8 µM
[31]
  GI50: 2.81 µM
  TGI: 11 µM and 9.94 µM
[32]
  GI50: 1.8 µM
  TGI: 14.2 µM and 3.98 µM
[33]
  TGI: 14 µM
[34]
  GI50: 2.62 µM
  TGI: 20.4 µM and 15 µM
[35]
  GI50: 2.54 µM
  TGI: 10.2 µM and 8.81 µM
[36]
  GI50: 1.99 µM
  TGI: 18.9 µM and 4.92 µM
[37]
  TGI: 26.6 µM
  outcome: inactive
[38]
  GI50: 4.61 µM
  TGI: 3.5 µM and 17.9 µM
[39]
  GI50: 10.2 µM
  TGI: 26 µM and 27.4 µM
[40]
  GI50: 13 µM
  TGI: 10.4 µM and 26.1 µM
[41]
  GI50: 8.44 µM
  TGI: 21.3 µM and 21.8 µM
[42]
  GI50: 3.61 µM
  TGI: 23.3 µM and 16.9 µM
[43]
  TGI: 27.6 µM and 27.5 µM
[44]
  GI50: 2.39 µM
  TGI: 16.6 µM and 6.5 µM
[45]
  TGI: 10.5 µM
[46]
  GI50: 2.21 µM
  TGI: 19.4 µM and 5.58 µM
[47]
  GI50: 7.87 µM
  TGI: 24.1 µM and 21.3 µM
[48]
  TGI: 25.8 µM and 32 µM
[49]
  TGI: 25.3 µM and 30.5 µM
[50]
  outcome: inactive
[51]
  GI50: 1.86 µM
  TGI: 18 µM and 3.68 µM
[52]
  TGI: 24.3 µM
[53]
  TGI: 20 µM and 20.6 µM
[54]
  GI50: 4.25 µM
  TGI: 11.8 µM and 14.6 µM
[55]
  GI50: 1.63 µM
  TGI: 4.39 µM and 3.3 µM
[56]
  GI50: 2.36 µM
  TGI: 22.5 µM and 7.44 µM
[57]
  GI50: 3.26 µM
  TGI: 30.5 µM and 17.1 µM

## CCC12C=CCN3CCC4(c5cc(C6(C(=O)OC)CCCCCc7c6[nH]c6ccccc76)c(OC)cc5N(C)C4C(O)(C(=O)OC)C1OC(C)=O)C32 (stereo unspecified)
[1]
  TGI: 4.89 µM
[2]
  TGI: 7.39 µM
[3]
  TGI: 11.7 µM
[4]
  TGI: 3.3 µM
[5]
  TGI: 7.46 µM
[6]
  TGI: 5.49 µM
[7]
  TGI: 8.85 µM
[9]
  TGI: 7.09 µM
[11]
  TGI: 14 µM
[12]
  TGI: 3.97 µM
[13]
  TGI: 13 µM
[14]
  TGI: 5.29 µM
[15]
  TGI: 5.81 µM
[16]
  TGI: 4.86 µM
[17]
  TGI: 13.2 µM
[18]
  TGI: 4.76 µM
[19]
  TGI: 2.06 µM
[20]
  TGI: 5.23 µM
[21]
  TGI: > 100 µM
[22]
  TGI: 5.93 µM
[23]
  TGI: 4.76 µM
[58]
  TGI: 5.54 µM
[25]
  TGI: 6.75 µM
[26]
  TGI: 6.93 µM
[27]
  TGI: 3.84 µM
[28]
  TGI: 9.19 µM
[29]
  TGI: 6.65 µM
[31]
  TGI: 9.92 µM
[33]
  TGI: 15.5 µM
[34]
  TGI: 12.3 µM
[36]
  TGI: 17.2 µM
[37]
  TGI: 6.97 µM
[38]
  TGI: 3.52 µM
[40]
  TGI: 5.3 µM
[41]
  TGI: 4.63 µM
[42]
  TGI: 3.17 µM
[43]
  TGI: 4.35 µM
[46]
  TGI: 12.8 µM
[47]
  TGI: 12.1 µM
[48]
  TGI: 7.8 µM
[49]
  TGI: 9.48 µM
[50]
  TGI: 7.65 µM
[51]
  TGI: 17.5 µM
[52]
  TGI: 5.5 µM
[53]
  TGI: 5.68 µM
[55]
  TGI: 3.43 µM
[56]
  TGI: 7.25 µM
[57]
  TGI: 6.44 µM
